Test results as given in patent US20180099931A1 (AbbVie S.à.r.l., priority 2016, published 2018).
Read-outs that look alike come from different tables or passages of the source.

Biological target: T1, F508delCFTR (Homo sapiens, UniProt P13569, DEL508-508)
T1 construct: expressed in transfected cells; host or cells: CFBE41o- human lung-derived epithelial cells (CFBE4lo-F508delCFTR-HRP), doxycycline-inducible
Assay: Cell Surface Expression-Horse Radish Peroxidase (CSE-HRP) Assay;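 on Maximum % activity (with co-corrector): co-corrector and positive control are both the same reference corrector at 2 µM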;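 on Maximum % activity (without co-corrector): percent of the 2 µM on-plate positive control corrector response above DMSO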
Format: cell-based
Conditions: for Maximum % activity (with co-corrector): with co-corrector (2 μM); for Maximum % activity (with co-corrector) / Emax: maximum at any tested concentration, normalized to on-plate positive control; for Emax: without co-corrector, read-out: Maximum % activity (without co-corrector)

[1] = test compound without co-corrector, read-out: EC50 (without co-corrector)
[2] = with co-corrector (2 μM of 3-[(2R,4R)-4-({[1-(2,2-difluoro-1,3-benzodioxol-5-yl)cyclopropyl]carbonyl}amino)-7-methoxy-3,4-dihydro-2H-chromen-2-yl]benzoic acid), read-out: EC50 (with co-corrector)
[3] = CSE-HRP, test compound without co-corrector, read-out: EC50 (without co-corrector)
[4] = CSE-HRP, with co-corrector (2 μM of 3-[(2R,4R)-4-({[1-(2,2-difluoro-1,3-benzodioxol-5-yl)cyclopropyl]carbonyl}amino)-7-methoxy-3,4-dihydro-2H-chromen-2-yl]benzoic acid), read-out: EC50 (with co-corrector)

T1 sequence (P13569 with tags, fused parts or gaps DEL508-508): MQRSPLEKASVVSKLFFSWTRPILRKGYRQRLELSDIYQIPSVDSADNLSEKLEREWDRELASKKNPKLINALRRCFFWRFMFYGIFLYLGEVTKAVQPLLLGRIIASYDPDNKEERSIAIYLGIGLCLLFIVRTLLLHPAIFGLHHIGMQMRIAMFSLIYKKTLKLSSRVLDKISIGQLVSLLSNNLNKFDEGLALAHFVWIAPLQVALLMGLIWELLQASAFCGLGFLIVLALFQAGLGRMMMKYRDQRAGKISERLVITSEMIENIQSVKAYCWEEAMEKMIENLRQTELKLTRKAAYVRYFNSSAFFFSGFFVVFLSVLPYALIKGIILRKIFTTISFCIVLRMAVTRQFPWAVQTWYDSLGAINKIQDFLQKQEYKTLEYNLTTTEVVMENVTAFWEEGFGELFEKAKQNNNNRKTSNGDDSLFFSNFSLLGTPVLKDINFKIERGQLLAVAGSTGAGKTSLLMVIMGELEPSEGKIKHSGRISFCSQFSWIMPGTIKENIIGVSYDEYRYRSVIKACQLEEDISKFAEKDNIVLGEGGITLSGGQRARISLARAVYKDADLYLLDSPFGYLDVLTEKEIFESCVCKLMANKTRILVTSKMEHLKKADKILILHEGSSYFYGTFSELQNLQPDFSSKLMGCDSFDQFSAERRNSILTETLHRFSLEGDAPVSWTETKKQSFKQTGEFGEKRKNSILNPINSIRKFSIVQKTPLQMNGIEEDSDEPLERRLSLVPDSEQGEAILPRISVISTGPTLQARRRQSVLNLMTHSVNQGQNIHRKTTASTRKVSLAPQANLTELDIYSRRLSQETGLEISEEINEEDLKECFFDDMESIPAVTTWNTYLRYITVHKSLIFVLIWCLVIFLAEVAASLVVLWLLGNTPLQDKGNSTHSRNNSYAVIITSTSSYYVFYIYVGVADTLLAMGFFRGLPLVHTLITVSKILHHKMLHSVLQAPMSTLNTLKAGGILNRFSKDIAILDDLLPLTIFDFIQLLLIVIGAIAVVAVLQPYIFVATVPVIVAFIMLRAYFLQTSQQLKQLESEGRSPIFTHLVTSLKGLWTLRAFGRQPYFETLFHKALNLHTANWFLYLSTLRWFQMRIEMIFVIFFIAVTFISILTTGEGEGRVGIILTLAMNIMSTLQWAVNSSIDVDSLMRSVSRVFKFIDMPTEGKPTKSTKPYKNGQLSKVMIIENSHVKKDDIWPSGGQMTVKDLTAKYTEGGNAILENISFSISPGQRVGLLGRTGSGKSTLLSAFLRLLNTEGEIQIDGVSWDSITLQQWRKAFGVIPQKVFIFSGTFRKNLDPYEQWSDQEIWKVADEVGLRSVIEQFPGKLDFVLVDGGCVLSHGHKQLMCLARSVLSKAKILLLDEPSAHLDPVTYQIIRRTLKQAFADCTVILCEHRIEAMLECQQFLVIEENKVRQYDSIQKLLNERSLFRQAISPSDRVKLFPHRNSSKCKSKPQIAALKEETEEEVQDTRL

Compound	EC50 [1] [nM]	EC50 [2] [nM]	Maximum % activity (with co-corrector)	Emax [%]	EC50 [3] [nM]	EC50 [4] [nM]	Maximum % activity (with co-corrector) (CSE-HRP)	Emax (CSE-HRP) [%]
COc1ccc(C(C)(C)C)cc1CN[C@H]1[C@H](C(C)(C)C)[C@@H](C(=O)O)N(C(=O)[C@H](C)c2ccccc2)[C@H]1c1cccnc1OC [Example I-239]	1000 to 10000	1000 to 10000	+++ (≥350)	100 to 200				
COc1ncc(C(F)(F)F)cc1CN[C@H]1[C@H](C(C)(C)C)[C@@H](C(=O)O)N(C(=O)[C@H](C)c2ccccc2)[C@H]1c1cccnc1OC [Example I-240]	1000 to 10000	1000 to 10000	+++ (≥350)	< 100				
COc1nc(C2CCC2)ccc1CN[C@H]1[C@H](C(C)(C)C)[C@@H](C(=O)O)N(C(=O)C2CCCCC2)[C@H]1c1ccccc1 [Example I-242]	1000 to 10000	1000 to 10000	+++ (≥350)	100 to 200				
COc1ncc(C2CCC2)cc1CN[C@H]1[C@H](C(C)(C)C)[C@@H](C(=O)O)N(C(=O)C2C3CCCC32)[C@H]1c1cccnc1OC (stereo partly drawn) [Example I-243]	1000 to 10000	1000 to 10000	+++ (≥350)	100 to 200				
COc1ccc(C(C)(C)C)cc1CN[C@H]1[C@H](C(C)(C)C)[C@@H](C(=O)O)N(C(=O)OC2COC2)[C@H]1c1ccccc1 [Example I-244, (2S,3S,4S,5S)-3-tert-butyl-4-{[(5-tert-butyl-2-methoxyphenyl)methyl]amino}-1-{[(oxetan-3-yl)oxy]carbonyl}-5-phenylpyrrolidine-2-carboxylic acid]	1000 to 10000	1000 to 10000	+++ (≥350)	100 to 200				
COc1ccc(S(F)(F)(F)(F)F)cc1CN[C@H]1[C@H](C(C)(C)C)[C@@H](C(=O)O)N(C(=O)OC(C)C)[C@H]1c1cccnc1N(C)C [Example I-245]	1000 to 10000	1000 to 10000	+++ (≥350)	> 200				
COc1ccc(C(C)(C)C)cc1CN[C@H]1[C@H](C(C)(C)C)[C@@H](C(=O)O)N(C(=O)[C@@H]2CCCN(C(=O)OC(C)C)C2)[C@H]1c1ccccc1 [Example I-246, (2S,3S,4S,5S)-3-tert-butyl-4-{[(5-tert-butyl-2-methoxyphenyl)methyl]amino}-5-phenyl-1-[(3R)-1-{[(propan-2-yl)oxy]carbonyl}piperidine-3-carbonyl]pyrrolidine-2-carboxylic acid]	1000 to 10000	1000 to 10000	+++ (≥350)	> 200				
CC(C)(C)c1ccc(CN[C@H]2[C@H](C(C)(C)C)[C@@H](C(=O)O)N(C(=O)[C@@H]3CCCC(F)(F)C3)[C@H]2c2ccccc2)c(Cl)n1 [Example I-247]	1000 to 10000	1000 to 10000	+++ (≥350)	< 100				
COc1ccc(C(C)(C)C)cc1CN[C@H]1[C@H](C(C)(C)C)[C@@H](C(=O)O)N(C(=O)C2(c3ccccc3)CC2)[C@H]1c1cccnc1OC [Example I-248]	1000 to 10000	1000 to 10000	+++ (≥350)	100 to 200				
COc1nc2ccccc2cc1CN[C@H]1[C@H](C(C)(C)C)[C@@H](C(=O)O)N(C(=O)OC(C)C)[C@H]1c1ccccc1C(C)C [Example I-250]					1000 to 10000	< 1000	+++ (≥350)	> 200
COc1cc2c(cc1CN[C@H]1[C@H](C(C)(C)C)[C@@H](C(=O)O)N(C(=O)OC(C)C)[C@H]1c1cccnc1N(C)C)C(C)(C)CCC2(C)C [Example I-251]					1000 to 10000	1000 to 10000	+++ (≥350)	100 to 200
COc1ccc(C(F)(F)F)cc1CN[C@H]1[C@H](C(C)(C)C)[C@@H](C(=O)O)N(C(=O)OC(C)C)[C@H]1c1cccc(Cl)c1 [Example I-252]					1000 to 10000	1000 to 10000	+++ (≥350)	> 200
CC[C@H](C(=O)N1[C@H](C(=O)O)[C@@H](C(C)(C)C)[C@H](NCc2cc(C(C)(C)C)ccc2OC)[C@@H]1c1cccnc1OC)c1ccccc1 [Example I-253]					1000 to 10000	1000 to 10000	+++ (≥350)	100 to 200
COc1ccc(C(C)(C)C)cc1CN[C@H]1[C@H](C(C)(C)C)[C@@H](C(=O)O)N(C(=O)[C@@]2(C)COc3cc4c(cc32)OC(F)(F)O4)[C@H]1c1cccnc1OC [Example I-254]					1000 to 10000	1000 to 10000	+++ (≥350)	< 100
COc1cc(C(F)(F)F)ccc1CN[C@H]1[C@H](C(C)(C)C)[C@@H](C(=O)O)N(C(=O)[C@@H]2CCC[C@@H](OC)C2)[C@H]1c1ccccc1 [Example I-255]					1000 to 10000	1000 to 10000	+++ (≥350)	< 100
